# In the NIST ThermoML archive (doi:10.1021/je060149b):
# Test: xn = mol fraction of the nth substance listed
# Conditions: 101 kPa, Liquid, Taylor dispersion method, x1 = 0
SMILES,binary diffusion coefficient (293.2 K) [m2/s],binary diffusion coefficient (298.2 K) [m2/s],binary diffusion coefficient (303.2 K) [m2/s],binary diffusion coefficient (313.2 K) [m2/s],binary diffusion coefficient (323.2 K) [m2/s],binary diffusion coefficient (333.2 K) [m2/s]
CC[C@H](C)[C@H](N)C(=O)O [2-amino-3-methylpentanoic acid] + O,6.41e-10,7.44e-10,8.36e-10,1.07e-09,1.33e-09,1.62e-09
NCC(=O)O [2-aminoacetic acid] + O,9.36e-10,1.06e-09,1.22e-09,1.5e-09,1.86e-09,2.22e-09
CCCCC(N)C(=O)O (stereo not given) [2-aminohexanoic acid] + O,6.41e-10,7.36e-10,8.27e-10,1.07e-09,1.32e-09,1.6e-09
CCC(N)C(=O)O (stereo not drawn) [(.+-.)-α-aminobutyric acid] + O,7.29e-10,8.39e-10,9.48e-10,1.2e-09,1.49e-09,1.8e-09
CCC[C@H](N)C(=O)O [(S)-2-aminopentanoic acid] + O,6.77e-10,7.75e-10,8.79e-10,1.12e-09,1.39e-09,1.69e-09
C[C@H](N)C(=O)O [(S)-2-aminopropanoic acid] + O,8.06e-10,9.3e-10,1.04e-09,1.31e-09,1.63e-09,1.96e-09
CC(C)(C)C(N)C(=O)O (stereo not drawn) [DL-tert-leucine] + O,6.31e-10,7.29e-10,8.46e-10,1.06e-09,1.33e-09,1.61e-09
CC(C)C[C@H](N)C(=O)O [L-leucine] + O,6.41e-10,7.35e-10,8.24e-10,1.07e-09,1.33e-09,1.6e-09
CC(C)[C@H](N)C(=O)O [L-valine] + O,6.76e-10,7.77e-10,8.91e-10,1.12e-09,1.4e-09,1.7e-09
CC[C@@H](C)[C@H](N)C(=O)O [allo-L-isoleucine] + O,6.42e-10,7.38e-10,8.44e-10,1.07e-09,1.33e-09,1.61e-09
